Where two headings read alike, the source gives them in different places. Marks after values point to notes of the source that are not given here. Residues, ends and D or L forms follow the SMILES beside them.
Columns and labels:
F. oxysporum [1] = format: cell-based, Fusarium oxysporum f. sp. lycopersici (strain F37)
Method: In the first series of these experiments, we tested the inhibitory effect of the fragments against F. oxysporum and compared the inhibitory activity of the fragments to each other and to the entire WAMP-2 peptide. Microconidia of the pathogen were treated to each of the WAMP-2 fragments taken at three or four concentrations ranging between 50 and 200 (WAMP-N, WAMP-G2), 100 and 400 (WAMP-G1), or 50 and 400 (WAMP-C) µg/mL. […] After the treatments, the rate of germinated conidia was determined, expressed as the percent relative to the total number of conidia counted (500 ones per treatment). Effective doses (EDs) providing a 50% or 99.9% inhibition were calculated by probit analysis. The performed analysis confirmed our previous data on the antifungal activity of WAMP-2-derived fragments towards the Fusarium wilt agent.
(§1) The inhibitory effect of synthesized peptides on conidial germination of fungi was assessed by a microtiterplate assay. Fungal conidia were added to WAMP-2-derived peptides, already dissolved in SDW, to prepare suspensions having final concentrations of 10^5 microconidia/mL (F. oxysporum) or 3 × 10^4 macroconidia/mL (A. solani). Resulting suspensions were incubated at 20–22 °C overnight in wells of 96-well microtiter plates. Control suspensions (with the same final concentrations of conidia) were prepared using SDW. Thereafter, germinated and non-germinated conidia (500 ones of each pathogen per treatment) were counted in treated and control suspensions using an inverted microscope. The average number of conidia germinated in these suspensions was calculated and expressed as the percent of the total number of the counted conidia. In addition, percent germination inhibition in the treated conidia, relative to germination in controls, was determined and indicated as levels of the inhibitory effect in Table 2 and Table 3. Oligopeptides were tested at final concentrations of 50, 100, 200, and 400 µg/mL, which were selected based on previous results of testing of the same WAMP-2-derived peptides for the ability to inhibit spore germination in other Fusarium and Alternaria species.
Inhibitory concentrations of the peptides providing in vitro 50% or 99% in vitro suppression of conidial germination (ED50, and ED99, respectively) were determined by the probit analysis with the involvement of a linear regression. In a regression equation (Y = ax + b) used in probit analyses, Y is the probit value for 50% or 99% inhibition levels, x values are decimal logarithms of the correspondent concentrations, and a and b represent regression coefficients. The calculated ED99 values from the probit analysis were considered as the minimum fungicidal concentration (MFC), i.e., the lowest concentration of a peptide, used alone, resulting in […] inhibition of conidial germination.
For each of the two pathogens, microtiter plate tests with synthesized peptides included three independent experimental series. Each experiment included 5 replications of each treatment, 100 conidia per each one (n = 500). […] Mean values, standard deviations, standard errors, as well as significant differences from controls and between treatments (t-test for independent variables, p ≤ 0.05), were calculated using STATISTICA v. […] Approximation of confidence values (R^2) and regression coefficients were determined using statistical functions of Microsoft Excel 2013 (Microsoft Corp. Redmond, WA, USA).

A. solani [2] = format: cell-based, Alternaria solani (strain MO-VNIIF-9-2018)
Method: as §1, with “Oligopeptides were tested at final concentrations of 50, 100, 200, and 400 µg/mL, which were selected based on previous results of testing of the same WAMP-2-derived peptides for the ability to inhibit spore germination in other Fusarium and Alternaria species.” left out
For each of the two pathogens, microtiter plate tests with synthesized peptides included three independent experimental series. […] Mean values, standard deviations, standard errors, as well as significant differences from controls and between treatments (t-test for independent variables, p ≤ 0.05), were calculated using STATISTICA v. […]

F. oxysporum [3] = format: cell-based, Fusarium oxysporum f. sp. lycopersici (strain F37); settings: for Expected additive inhibitory effect (Ee), peptide combined with Folicur: calculated by Limpel's formula
Method: (§2) The assays were performed in 96-well microtiter plates, using a “checkerboard” design. Fungal conidia were treated with either Folicur® or peptide fragments, each alone, and, in parallel, were subjected to combined treatments wherein the fungicide and one of the WAMP-2-derived peptides were mixed in the same concentration as when used alone. […] However, enhancement potency varied depending on the pathogen, the WAMP fragment, and co-applied concentrations of the WAMP-2 fragments and Folicur®.
as §1
(§3) In vitro tests involving pathogen sensitization to Folicur® EC 250 were designed under the principle of a microdilution checkerboard assay. Fungal conidia were incubated in 96-well plates in mixtures of the fungicide and each of the peptides at the above-mentioned concentrations in parallel with conidia’ incubation in the solutions of Folicur® or the oligopeptides, alone, used at the same final concentrations as in the mixtures.
(§4) To reveal oligopeptide/fungicide synergy, the Limpel criterion Ee < Er was determined by Formula (1):Ee,% = (X + Y) − XY/100 < Er,% (at p ≤ 0.05),(1) where Ee is the level of an expected additive effect from application of both test compounds; X and Y represent inhibition of the spore germination in % by each antifungal agent used alone; and Er is the percentage of actual inhibition obtained experimentally by co-application of X and Y.
(§5) For each of the two pathogens, microtiter plate tests with synthesized peptides included three independent experimental series. Each experiment included 5 replications of each treatment, 100 conidia per each one (n = 500). Experiments evaluating the sensitizing activity of the tested peptides on leaf disks and detached tomato seedlings were additionally repeated twice. Mean values, standard deviations, standard errors, as well as significant differences from controls and between treatments (t-test for independent variables, p ≤ 0.05), were calculated using STATISTICA v. 6.1 software (StatSoft Inc., Tulsa, OK, USA). Approximation of confidence values (R^2) and regression coefficients were determined using statistical functions of Microsoft Excel 2013 (Microsoft Corp. Redmond, WA, USA).

A. solani [4] = format: cell-based, Alternaria solani (strain MO-VNIIF-9-2018); remark: listed apart in the source
Method: as §2, §1, §3, §4, §5

CC(C)C[C@H](N)C(=O)N[C@@H](CS)C(=O)N[C@@H](CS)C(=O)NCC(=O)N[C@@H](CCCCN)C(=O)N[C@@H](Cc1ccc(O)cc1)C(=O)NCC(=O)N[C@@H](Cc1ccccc1)C(=O)N[C@@H](CS)C(=O)NCC(=O)N[C@@H](CO)C(=O)NCC(=O)O [WAMP-G1] (H-LCCGKYGFCGSG-OH)
ED99 (MFC) (F. oxysporum [1]): >10,000 µg/mL | ED99 (MFC) (A. solani [2]): 3980.0 ^f µg/mL | Inhibitory effect on conidial germination (Er), peptide alone (F. oxysporum [3]; 100 µg/mL): 1.1 ^a % | Inhibitory effect on conidial germination (Er), peptide alone (F. oxysporum [3]; 200 µg/mL): 8.0 ^b % | Inhibitory effect on conidial germination (Er), peptide alone (F. oxysporum [3]; 400 µg/mL): 17.5 ^c % | Inhibitory effect on conidial germination (Er), peptide alone (A. solani [4]; 100 µg/mL): 2.0 ^a % | Inhibitory effect on conidial germination (Er), peptide alone (A. solani [4]; 200 µg/mL): 9.8 ^b % | Inhibitory effect on conidial germination (Er), peptide alone (A. solani [4]; 400 µg/mL): 21.9 ^c %

C[C@H](N)C(=O)N[C@@H](CCC(N)=O)C(=O)N[C@@H](CCCNC(=N)N)C(=O)N[C@@H](CS)C(=O)NCC(=O)N[C@@H](CC(=O)O)C(=O)N[C@@H](CCC(N)=O)C(=O)N[C@@H](C)C(=O)N[C@@H](CCCNC(=N)N)C(=O)NCC(=O)N[C@@H](C)C(=O)N[C@@H](CCCCN)C(=O)N[C@@H](CS)C(=O)O [WAMP-N] (H-AQRCGDQARGAKC-OH)
ED99 (MFC) (F. oxysporum [1]): 22.7 µg/mL | Inhibitory effect on conidial germination (Er), peptide alone (F. oxysporum [3]; 50 µg/mL): 12.3 ^a % | Inhibitory effect on conidial germination (Er), peptide alone (F. oxysporum [3]; 100 µg/mL): 23.1 ^b % | Inhibitory effect on conidial germination (Er), peptide alone (F. oxysporum [3]; 200 µg/mL): 42.7 ^c %

N=C(N)NCCC[C@H](NC(=O)[C@H](CS)NC(=O)CNC(=O)[C@H](CCCNC(=N)N)NC(=O)[C@H](CS)NC(=O)[C@H](CCC(N)=O)NC(=O)[C@H](CO)NC(=O)[C@H](CCC(N)=O)NC(=O)[C@H](CS)NC(=O)[C@H](CO)NC(=O)CNC(=O)[C@H](CCCCN)NC(=O)CN)C(=O)O [WAMP-C] (H-GKGSCQSQCRGCR-OH)
ED99 (MFC) (F. oxysporum [1]): 106.9 ^d µg/mL | ED99 (MFC) (A. solani [2]): 53.4 ^g µg/mL | Inhibitory effect on conidial germination (Er), peptide alone (F. oxysporum [3]; 50 µg/mL): 4.3 ^a % | Inhibitory effect on conidial germination (Er), peptide alone (F. oxysporum [3]; 100 µg/mL): 6.2 ^b % | Inhibitory effect on conidial germination (Er), peptide alone (F. oxysporum [3]; 200 µg/mL): 8.6 ^c % | Inhibitory effect on conidial germination (Er), peptide alone (F. oxysporum [3]; 400 µg/mL): 11.6 ^c % | Inhibitory effect on conidial germination (Er), peptide alone (A. solani [4]; 100 µg/mL): 19.0 ^a % | Inhibitory effect on conidial germination (Er), peptide alone (A. solani [4]; 200 µg/mL): 31.0 ^b % | Inhibitory effect on conidial germination (Er), peptide alone (A. solani [4]; 400 µg/mL): 48.2 ^c %

CCGKYGFCGSGDAYC [WAMP-G2, chemically synthesized fragment (residues 18–32) from the central region of WAMP-2]
ED50 (F. oxysporum [1]; 50% inhibition of microconidia germination, probit analysis, SDW, overnight 20–22 °C): 0.35 ^a µg/mL | ED99 (MFC) (F. oxysporum [1]; lowest concentration giving 99.9% inhibition of conidial germination, probit analysis): 35.1 ^b µg/mL | Expected additive inhibitory effect (Ee), peptide combined with Folicur (F. oxysporum [3]; peptide 50 µg/mL + Folicur 0.005 µg/mL): 14.5% | Observed inhibitory effect (Er), peptide combined with Folicur (F. oxysporum [3]; peptide 50 µg/mL + Folicur 0.005 µg/mL, mean of 3 experiments): 27.8 ^b % | Expected additive inhibitory effect (Ee), peptide combined with Folicur (F. oxysporum [3]; peptide 50 µg/mL + Folicur 0.01 µg/mL): 24.8% | Observed inhibitory effect (Er), peptide combined with Folicur (F. oxysporum [3]; peptide 50 µg/mL + Folicur 0.01 µg/mL, mean of 3 experiments): 36.4 ^b % | Expected additive inhibitory effect (Ee), peptide combined with Folicur (F. oxysporum [3]; peptide 50 µg/mL + Folicur 0.05 µg/mL): 33.0% | Observed inhibitory effect (Er), peptide combined with Folicur (F. oxysporum [3]; peptide 50 µg/mL + Folicur 0.05 µg/mL, mean of 3 experiments): 47.4 ^b % | Inhibitory effect on conidial germination (Er), peptide alone (F. oxysporum [3]; peptide 50 µg/mL, Folicur 0.0 µg/mL, SDW, overnight 20–22 °C, mean of 3 experiments): 7.0 ^a % | Expected additive inhibitory effect (Ee), peptide combined with Folicur (F. oxysporum [3]; peptide 100 µg/mL + Folicur 0.005 µg/mL): 28.8% | Observed inhibitory effect (Er), peptide combined with Folicur (F. oxysporum [3]; peptide 100 µg/mL + Folicur 0.005 µg/mL, mean of 3 experiments): 49.3 ^c % | Expected additive inhibitory effect (Ee), peptide combined with Folicur (F. oxysporum [3]; peptide 100 µg/mL + Folicur 0.01 µg/mL): 37.7% | Observed inhibitory effect (Er), peptide combined with Folicur (F. oxysporum [3]; peptide 100 µg/mL + Folicur 0.01 µg/mL, mean of 3 experiments): 53.1 ^c % | Expected additive inhibitory effect (Ee), peptide combined with Folicur (F. oxysporum [3]; peptide 100 µg/mL + Folicur 0.05 µg/mL): 44.1% | Observed inhibitory effect (Er), peptide combined with Folicur (F. oxysporum [3]; peptide 100 µg/mL + Folicur 0.05 µg/mL, mean of 3 experiments): 56.8 ^c % | Inhibitory effect on conidial germination (Er), peptide alone (F. oxysporum [3]; peptide 100 µg/mL, Folicur 0.0 µg/mL, SDW, overnight 20–22 °C, mean of 3 experiments): 22.4 ^b % | Expected additive inhibitory effect (Ee), peptide combined with Folicur (F. oxysporum [3]; peptide 200 µg/mL + Folicur 0.005 µg/mL): 41.8% | Observed inhibitory effect (Er), peptide combined with Folicur (F. oxysporum [3]; peptide 200 µg/mL + Folicur 0.005 µg/mL, mean of 3 experiments): 62.6 ^d % | Expected additive inhibitory effect (Ee), peptide combined with Folicur (F. oxysporum [3]; peptide 200 µg/mL + Folicur 0.01 µg/mL): 47.1% | Observed inhibitory effect (Er), peptide combined with Folicur (F. oxysporum [3]; peptide 200 µg/mL + Folicur 0.01 µg/mL, mean of 3 experiments): 74.8 ^d % | Expected additive inhibitory effect (Ee), peptide combined with Folicur (F. oxysporum [3]; peptide 200 µg/mL + Folicur 0.05 µg/mL): 52.7% | Observed inhibitory effect (Er), peptide combined with Folicur (F. oxysporum [3]; peptide 200 µg/mL + Folicur 0.05 µg/mL, mean of 3 experiments): 87.1 ^d % | Inhibitory effect on conidial germination (Er), peptide alone (F. oxysporum [3]; peptide 200 µg/mL, Folicur 0.0 µg/mL, SDW, overnight 20–22 °C, mean of 3 experiments): 34.1 ^c %
